Results as given in patent US11673876B2, “Substituted aminobenzyl heteroaryl compounds as EGFR and/or PI3K inhibitors” (Mekanistic Therapeutics LLC, priority 2020, dated 2023).
In brackets after ≈: the same amount, converted by molar mass. Like-named read-outs stand apart in the source and are kept apart here.

Columns and labels:
[1] = Metabolic stability in mouse liver microsomes; type: in vitro ADME
Experimental: Working solution: 5 μL of compound and control stock solution (10 mM in dimethyl sulfoxide (DMSO)) were diluted with 495 μL of acetonitrile (ACN) (intermediate solution concentration: 100 μM, 99% ACN)
NADPH Cofactor Preparation: NADPH powder: β-Nicotinamide adenine dinucleotide phosphate reduced form, tetrasodium salt; NADPH·4Na. The appropriate amount of NADPH powder was weighed and diluted into a 10 mM MgCl2 solution (working solution concentration: 10 unit/mL; final concentration in reaction system: 1 unit/mL)
Liver Microsomes Preparation: The appropriate concentrations of microsome working solutions were prepared in 100 mM potassium phosphate buffer. Cold (4° C.) acetonitrile (ACN) containing 200 ng/mL tolbutamide and 200 ng/mL labetalol as internal standards (1S) was used as the stop solution
Assay Procedure: Pre-warm empty ‘Incubation’ plates T60 and NCF60 for 10 minutes. Dilute liver microsomes to 0.56 mg/mL in 100 mM phosphate buffer. Transfer 445 μL microsome working solutions (0.56 mg/mL) into pre-warmed ‘Incubation’ plates T60 and NCF60, Then pre-incubate ‘Incubation’ plates T60 and NCF60 for 10 min at 37° C. with constant shaking. Transfer 54 μL liver microsomes to blank plate, then add 6 μL NAPDH cofactor to blank plate, and then add 180 μL quenching solution to blank plate. Add 5 μL compound working solution (100 μM) into ‘incubation’ plates (T60 and NCF60) containing microsomes and mix 3 times thoroughly.
For the NCF60 plate, add 50 μL of buffer and mix 3 times thoroughly. Start timing; plate will be incubated at 37° C. for 60 min while shaking. In ‘Quenching’ plate T0, add 180 μL quenching solution and 6 μL NAPDH cofactor. Ensure the plate is chilled to prevent evaporation. For the T60 plate, mix 3 times thoroughly, and immediately remove 54 μL mixture for the 0-min time point to ‘Quenching’ plate. Then add 44 μL NAPDH cofactor to incubation plate (T60). Start timing; plate will be incubated at 37° C. for 60 min while shaking. At 5, 10, 20, 30, and 60 min, add 180 μL quenching solution to ‘Quenching’ plates, mix once, and serially transfer 60 μL sample from T60 plate per time point to ‘Quenching’ plates. For NCF60: mix once, and transfer 60 μL sample from the NCF60 incubation to ‘Quenching’ plate containing quenching solution at the 60-min time point. All sampling plates are shaken for 10 min, then centrifuged at 4000 rpm for 20 minutes at 4° C. Transfer 80 μL supernatant into 240 μL HPLC water, and mix by plate shaker for 10 min. Each bioanalysis plate was sealed and shaken for 10 minutes prior to LC-MS/MS analysis.
The equation of first order kinetics was used to calculate T½ and CLint(mic) (μL/min/mg). Equation of first order kinetics: […]
The biological stability of the compounds of the disclosure can be measured by determining its ½ life in the presence microsomes. Presented in Table 5, is the ½ life of selected compounds of the disclosure in the presence of human liver microsomes (HLM) or mouse liver microsomes (MLM) as described above. In Table 5, ½ life is presented as “++++” (value is greater than 60 minutes), “+++” (value is greater than 30 minutes and less than or equal to 60 minutes), “++” (value is greater than 15 minutes and less than or equal to 30 minutes) and “+” (value is 15 minutes or less).

[2] = Solubility determination (PBS 7.4, SIF, SGF); type: physicochemical; conditions: for solubility at 2 h: kinetic from dmso stock
Experimental: Preparation of stock solutions: The stock solutions of test compounds and control compound diclofenac were prepared in DMSO at the concentrations of 10 mM.
Simulated Gastric Fluid (SGF): An aqueous mixture including hydrochloric acid, sodium chloride, and pepsin (pH=1.2).
Simulated Intestinal Fluid (SIF): Prepared by dissolving 6.8 g of KH2PO4 into about 500 mL ultrapure water and adjust the solution to a pH 6.8 with 0.1 M NaOH. 10 g trypsin is then dissolved into ultrapure water. The two solutions are mixed well and diluted with ultrapure water to a final volume of 1000 mL.
485 μL of (SIF, SGF, PBS 7.4, FESSIF, or FESSGF) was added into each vial of the cap-less Solubility Sample plate. The assay was performed in duplicate. Add one stir stick to each vial and seal using a molded PTFE/Silicone plug. […] After completion of the 2 hours, plugs were removed and the stir sticks were removed using a big magnet, the samples from the Solubility Sample plate were transferred into the filter plate. Using the Vacuum Manifold, all the samples were filtered. Aliquot of 5 μL and 5 μL DMSO were taken from the filtrate followed by addition of 490 μL of a mixture of H2O and acetonitrile containing internal standard (1:1). A certain proportion of ultrapure water was used to dilute the diluent according to the peak shape. The dilution factor was changed according to the solubility values and the LC-MS signal response.
Preparation of 300 μM standards (STD): From the 10 mM DMSO STD plate, 6 μL was transferred into the remaining empty plate, and then 194 μL of DMSO was added to that plate to have a STD concentration of 300 μM. From the 300 μM DMSO STD plate, 5 μL DMSO STD and 5 μL SIF was transferred into the remaining empty plate, and then 490 μL of a mixture of H2O and acetonitrile containing internal standard (1:1) was added to that plate to have a final STD concentration of 3 μM. A certain proportion of ultrapure water was used to dilute the diluent according to the peak shape. The concentrations of the standard samples were changed according to the LC-MS signal response.
Procedure for sample analysis: The plate was placed into the well plate autosampler. The samples were evaluated by LC-MS/MS analysis.
Data analysis: All calculations were carried out using Microsoft Excel. The filtrate was analyzed and quantified against a standard of known concentration using LC coupled with mass spectral peak identification and quantitation. Solubility values of the test compound and control compound were calculated as follows: […]
Any value of the compounds that was not within the specified limits was rejected and the experiment was repeated.

[3] = aqueous buffer, PBS pH 7.4, 25° C., 2 hours, read-out: Solubility pH 7.4 PBS buffer
[4] = simulated gastric fluid (SGF), simulated gastric fluid pH 1.2, 25° C., 2 hours, read-out: Solubility SGF
[5] = simulated intestinal fluid (SIF), simulated intestinal fluid pH 6.8, 25° C., 2 hours, read-out: Solubility SIF

SMILES | ½ life minutes (MLM) [1] | solubility at 2 h [2, 5] [µM] | Solubility SIF ([2]; simulated intestinal fluid pH 6.8, 25° C., 2 hours) | solubility at 2 h [2, 3] [µM] | solubility at 2 h [2, 4] [µM] | improvement in solubility compared to Comparative Compounds 1-3 ([2]; simulated intestinal fluid) | improvement in solubility compared to Comparative Compounds 1-3 ([2]; PBS buffer)
CS(=O)(=O)Nc1cncc(-c2ccc3ncnc(NCc4ccccc4)c3c2)c1 [Comparative Compound 3, reference compound] | + (value is 15 minutes or less) |  | * (value is 20 μM or less) |  |  |  | 
CC(Nc1c(C#N)cnc2ccc(-c3cnc4[nH]ncc4c3)cc12)c1ccccc1 (centres unmarked) [Compound 54, 4-(1-phenylethylamino)-6-(1H-pyrazolo[3,4-b]pyridin-5-yl)quinoline-3-carbonitrile] | + (value is 15 minutes or less) | ≤ 20 |  |  |  |  | 
CC(Nc1c(C#N)cnc2ccc(-c3cnc(N)nc3)cc12)c1ccccc1 (centres unmarked) [Compound 53, 6-(2-aminopyrimidin-5-yl)-4-(1-phenylethylamino) quinoline-3-carbonitrile] | +++ (value is greater than 30 minutes and less than or equal to 60 minutes) | 20 to 100 (≈ 7.33 to 36.6 µg/mL) |  |  |  |  | 
C[C@@H](Nc1c(C#N)cnc2ccc(-c3cnc(N)nc3)cc12)c1ccccc1 [Compound 53R, (R)-6-(2-aminopyrimidin-5-yl)-4-((1-phenylethyl)amino)quinoline-3-carbonitrile] | +++ (value is greater than 30 minutes and less than or equal to 60 minutes) | 20 to 100 (≈ 7.33 to 36.6 µg/mL) |  |  |  |  | 
C[C@@H](Nc1ncnc2ccc(-c3cnc(Cl)c(NS(C)(=O)=O)c3)cc12)c1ccccc1 [Compound 2R, N-(2-chloro-5-(4-((1R-phenylethyl)amino)quinazolin-6-yl)pyridin-3-yl)methanesulfonamide] | ++++ (value is greater than 60 minutes) | 100 to 200 (≈ 45.4 to 90.8 µg/mL) |  | 100 to 200 (≈ 45.4 to 90.8 µg/mL) | > 200 | at least 5 times | same improvement in solubility
CS(=O)(=O)Nc1cc(-c2ccc3ncnc(NCc4ccccc4)c3c2)cnc1Cl [Comparative Compound 1, N-[5-[4-(benzylamino)quinazolin-6-yl]-2-chloro-3-pyridyl]methanesulfonamide, reference compound] | ++++ (value is greater than 60 minutes) | ≤ 20 |  | ≤ 20 | > 200 |  | 
CS(=O)(=O)Nc1cc(-c2ccc3ncnc(Nc4ccc(F)c(Cl)c4)c3c2)cnc1Cl [Comparative Compound 2, reference compound] | ++++ (value is greater than 60 minutes) | ≤ 20 |  | ≤ 20 | > 200 |  | 

Continued, in another order:

½ life minutes (MLM) [1] | solubility at 2 h [2, 5] [µM] | Solubility SIF ([2]; simulated intestinal fluid pH 6.8, 25° C., 2 hours) | SMILES | solubility at 2 h [2, 3] [µM] | solubility at 2 h [2, 4] [µM] | improvement in solubility compared to Comparative Compounds 1-3 ([2]; simulated intestinal fluid) | improvement in solubility compared to Comparative Compounds 1-3 ([2]; PBS buffer)
++++ (value is greater than 60 minutes) | 20 to 100 (≈ 9.44 to 47.2 µg/mL) |  | C[C@@H](Nc1ncnc2ccc(-c3cnc(Cl)c(NS(C)(=O)=O)c3)cc12)c1ccc(F)cc1 [Compound 111R, N-(2-chloro-5-(4-((1R-(4-fluorophenyl)ethyl)amino)quinazolin-6-yl)pyridin-3-yl)methanesulfonamide] | 20 to 100 (≈ 9.44 to 47.2 µg/mL) | > 200 |  | 
++++ (value is greater than 60 minutes) | 100 to 200 (≈ 45.4 to 90.8 µg/mL) |  | C[C@H](Nc1ncnc2ccc(-c3cnc(Cl)c(NS(C)(=O)=O)c3)cc12)c1ccccc1 [Compound 2S, N-(2-chloro-5-(4-((1S-phenylethyl)amino)quinazolin-6-yl)pyridin-3-yl)methanesulfonamide] |  |  | at least 5 times | 
